Reference: patent publication US7265245B2, “Compounds useful for the treatment of diseases associated with the formation of amyloid fibrils” (Innovaprotean, S.L, priority 2003, dated 2007)

Biological target: Y78F hTTR mutant (Homo sapiens, UniProt P02766, Y98F)
Assay: turbidimetric test of amyloidogenesis (fibril formation) inhibiting activity in vitro
Type: biochemical
Conditions: for RA (%): % reduction of the rate of aggregation at high inhibitor concentration: RA(%)=(1−A/(A+B))·100, compared with the rate in the absence of inhibitor; for IC50: inhibitor concentration at which the aggregation was half that in the absence of inhibitor, 0 to 40 μM inhibitor, 37° C., acid-induced (dilution buffer pH 4.2); for Ψ: initial slope of curve v0 versus [I]: sensitivity of the aggregation process to the inhibitor, higher = greater inhibiting effect
Description: The compounds to be tested as inhibitors were dissolved in DMSO at a concentration of 1.5 mM. The working solution was prepared by 1 to 4 dilution of the previous solution in a water/DMSO mixture (2:1). […] The incubation buffer was 10 mM sodium phosphate, 100 mM potassium chloride, 1 mM EDTA, […]. The dilution buffer was 400 mM sodium acetate, 100 mM potassium chloride, 1 mM EDTA, pH 4.2. The test protocol for an inhibitor was as follows: 20 μl of the protein solution was dispensed in 7 wells of a 96-well microplate. Different volumes of the inhibitor working solution were added to each of the wells to obtain end concentrations of 0 to 40 μM. Incubation buffer was then added to each well up to an end volume of 100 μl. The microplate was incubated at 37° C. in the microplate reader provided with thermostatting and stirring. Incubation proceeded for 30 min at 37° C. with stirring for 15 seconds every minute. 100 μl of dilution buffer was then added to every well, and the mixture was incubated at 37° C. with stirring for 15 seconds every minute in the microplate reader and absorbance was monitored at 330 nm for 1 hour 30 minutes at intervals of 1 minute. The data of absorbance versus time for every well were collected and analysed with the Microsoft Excel program. All tests were done in duplicate.
1.—Initial fibril formation rate. From the absorbance readings at 330 nm with the incubation time for every well, the initial fibril formation rate was calculated as the slope of the initial linear portion of the curve. Thus, the aggregation rate was obtained at every inhibitor concentration. 2.—Aggregation rate versus inhibitor concentration.
The adjusted parameters were: A (in units of absorbance per hour), residual aggregation rate at high inhibitor concentration; B (in units of absorbance per hour), amplitude or maximum reduction of the aggregation rate; and C (in μM^−1) the exponential constant. A+B was the aggregation rate in the absence of inhibitor (maximum aggregation rate). From these parameters, other parameters were extracted that characterised every inhibitor with regard to its capacity and effectiveness in inhibiting fibril formation: • IC50: inhibitor concentration (μM) at which the aggregation was half that in the absence of inhibitor; • Ψ: initial slope of curve v0 versus [I], which reflected the sensitivity of the aggregation process to the inhibitor.

Row | RA (%): % reduction of the rate of aggregation at high inhibitor concentration [%] | IC50 [µM] | Ψ: initial slope of curve v0 versus [I] [UA · hr^−1 · μM^−1] | Compound
1 | 24 | > 100 | 0.011 | COC(=O)c1cc(-c2ccc(F)cc2F)ccc1O [Diflunisal methylester]
2 | 84 | – | 0.036 | O=C(O)c1cc(-c2ccc(F)cc2F)ccc1O [Diflunisal, 5-(2,4-difluorophenyl)salicylic acid]
3 | 84 | 11.7 | 0.041 | NC(=O)c1cc(-c2ccc(F)cc2F)cc(I)c1O [Iododiflunisalamide, 5-(2,4-difluorophenyl)-3-iodo-salicylamide]
4 | 98 | 16.7 | 0.027 | COC(=O)c1cc(-c2ccc(F)cc2F)cc(I)c1O [Iododiflunisalmethyl ester, methyl 5-(2,4-difluorophenyl)-3-iodo-salicylate]

Second part, the compound before the results:

Row | Compound | RA (%): % reduction of the rate of aggregation at high inhibitor concentration [%] | IC50 [µM] | Ψ: initial slope of curve v0 versus [I] [UA · hr^−1 · μM^−1]
5 | NC(=O)c1cc(-c2ccc(F)cc2F)ccc1O [Diflunisal amide] | 10 | > 100 | 0.009
6 | O=C(O)CNC(=O)c1cc(-c2ccc(F)cc2F)ccc1O [Diflunisal glycine] | 28 | > 100 | 0.011
7 | N-[5-(2,4-difluorophenyl)-3-iodo-salicyloyl]glycine [Iododiflunisalglycine] | 100 | 11.2 | 0.040
